Measurements from patent publication US11191798B2, “Extracts of Andrographis paniculata, methods for preparation and use thereof” (NUTRITION SCIENCE PARTNERS LIMITED, priority 2016, dated 2021).

Experiments:
[1] = test system: FGF1; experiment: FGF1 mRNA expression in human T84 cell line (Assay 6); type: cell-based; conditions: about 24 hours
Protocol: Enhancement of FGF1 expression of Example 7 and the four ingredients AND, NAND, DAND, and DDAND was investigated in human T84 cell line.
The adherent epithelial cell line T84 was used in the assay. For sustaining cell culture, T84 cells were incubated with DMEM/F-12 (1:1) medium containing 5% FBS at 37° C. with 5% CO2. Sub-culture was performed when cells reached 90% confluence.
(§1) For the assay, the cells were trypsinized and suspended in culture medium. The cell density was determined and adjusted to 1×10^6 cells/mL. Then, the cells were seeded into a 96-well plate and incubated at 37° C. with 5% CO2 overnight.
The two Andrographis paniculata extracts, Standard 1 and Example 7, and AND, NAND, DAND, DDAND, and the mixture of them (named as the mixture of 4 markers, wherein the amounts of AND, NAND, DAND, and DDAND were 69%, 11%, 5%, and 15%, respectively, by weight relative to the weight of the mixture) were serially diluted in DMSO and further diluted in medium. Diluted solution was added into wells. The final concentrations for Standard 1 were: 300 and 100 μg/mL. The final concentration for Example 7 was: 100 μg/mL. The final concentration for NAND, DAND and DDAND was 10 μg/mL and AND was 40 μg/mL. The final concentrations for mixture of 4 markers were: 100 and 30 μg/mL. The plate was incubated at 37° C. with 5% CO2 for about 24 hours. The supernatants were removed and 150 μL RLT buffer was added into each well. The plate was stored at −80° C. until RNA extraction.
Total RNA was extracted using RNeasy 96 kit (QIAGEN) and cDNA was synthesized from RNA template using High Capacity cDNA RT kit (Applied Biosystems). Quantitative real-time PCR detection of gene expression was using SYBR Premix Ex Taq TM II (TakaRa). Expression of genes analyzed by q-PCR was normalized to GAPDH using the fold change (2^−ΔΔCT) method. The formula used in the calculation is shown as follows: Fold=2^−ΔΔCT=2^−[(CT^test sample^−CT^test sample_GAPDH^)−(CT^minimum^−CT^minimum_GAPDH^)] where CTtest sample is the CT value of target gene in cells treated with the test samples; CTtest sample-GAPDH is the CT value of GAPDH gene in cells treated with the test samples; CTminimum is the CT value of target gene in cells treated without test samples, and CTminimum-GAPDH is the CT value of GAPDH gene in cells treated without test samples.

[2] = test system: DNBS-induced rat colitis; experiment: DNBS-induced rat colitis prophylactic model; type: in vivo, Wistar rats
Protocol: Assay 7: The In Vivo Efficacy of Andrographis Extract in a DNBS-Induced Rat Colitis Prophylactic Model 1. Materials 1.1. Test Compounds and Formulation Methods • Test articles: Two Andrographis paniculata extracts, Example 10 used in Experiment 1 and Example 11 used in Experiment 2. • Control drugs: Standard 1; and Sulfasalazine (SASP), Sigma-Aldrich, Cat S0883.
Oral suspension of the test articles and Standard 1 were prepared as follows: the test articles and Standard 1 were respectively weighed and added into a 50 mL centrifuge tube. 0.5% sodium carboxymethylcellulose (0.5% CMC-Na) was added. Sonicate for 15 min to give suspensions with desired concentration. The fresh-made formulation was stored away from light, and homogenized thoroughly before use. The administration volume was 10 ml/kg.
Oral suspension of SASP was prepared as follows: SASP was weighed and added into a 50 mL centrifuge tube. 0.5% CMC-Na was added. Sonicate for 15 min to give 30 mg/mL suspension. The fresh-made formulation was stored away from light, and homogenized thoroughly before use. The administration volume was 10 ml/kg.
Male Wistar rats, 110-130 g, were purchased from Shanghai SLAC Laboratory Animal Co. Ltd.
Wistar rats were randomized assigned. The fasting rats were anesthetized with 25 mg/kg Zoletil and 0.5 mg/kg xylazine. And colitis was induced by intracolonic administration of 10 mg or 12 mg DNBS dissolved in 0.25 mL of 30% ethanol (v/v). The animals in naive control group were instilled with 30% ethanol only.
• Body weight: Body weights of animals were checked daily on and after grouping. • Diarrhea score: Stool consistency of the animals was monitored and scored daily from the 3rd day after the model induction. Evaluation criteria: 0=formed, 1=moist/sticky, 2=loose, 3=liquid. • Colon weight and length measurement: Rats were sacrificed 4 h post the last dosing on the 6th day. The abdomen was opened by a midline incision. Adhesion degree of colon and other organs was observed. The colon (from cecum end to the anus) was emptied of its content, rinsed with saline. The weight and length of the colon were measured, and then the colon ratio (colon weight/colon length) was calculated. • Histopathology analysis: Proximal colon with obvious ulcer was made into Swiss Rolls, fixed in 10% neutral formalin solution, dehydrated with xylene, embedded in paraffin, sectioned, and stained with hematoxylin and eosin (H&E). […] The severity of lesion was graded based on a semi-quantitative scale using the sum of scores of the following 10 evaluation indicators (see table 7).
All of the data were presented as mean±SD.
Body weight data were analyzed with repeated-measures ANOVA analysis by GraphPad Prism 6.0 software. Fisher's Least Significant Difference (LSD) test was used to perform significance analysis. p value was calculated. *p<0.05 refers to significant difference between vehicle control group and each of the treated groups. **p<0.01 refers to extremely significant difference between vehicle control group and each of the treated groups.
The colon ratio inhibition of each animal was calculated by the following formula, wherein CW refers to colon weight, CL refers to colon length:
The statistical analysis of the data of colon length and colon ratio was performed by Graphpad Prism 6.0 software. Unpaired t test or Mann-Whitney test were applied to analyze the significance analysis between test article treated groups and vehicle treated group, based on the normality of the data.

[3] = test system: FGF2; experiment: FGF2 mRNA expression in epithelial cell T84 (Assay 5); type: cell-based, human; conditions: about 24 hours
Protocol: (§2) Enhancement of EGF and FGF expression were investigated in a human HT-29 and T84 cell lines.
(§3) Two adherent epithelial cell lines, HT29 and T84, were used in the assay. For sustaining cell culture, HT29 cells were incubated in cell culture dish with McCoy's 5a Medium containing 10% FBS, and T84 cells were incubated with DMEM/F-12 (1:1) medium containing 5% FBS. All cells were incubated at 37° C. with 5% CO2. Sub-culture was performed when cells reached 90% confluence.
as §1
(§4) The two Andrographis paniculata extracts, Standard 1 and Example 1, were serially diluted in DMSO and further diluted in medium. Diluted solution was added into wells. The final concentrations for Standard 1 were: 300, 100, 30 and 10 μg/mL. The final concentrations for Example 1 were: 100, 30, 10 and 1 μg/mL. […]
(§5) Total RNA was extracted using RNeasy 96 kit (QIAGEN) and cDNA was synthesized from RNA template using High Capacity cDNA RT kit (Applied Biosystems). Quantitative real-time PCR detection of gene expression was using SYBR Premix Ex Taq TM II (TakaRa). Expression of genes analyzed by q-PCR was normalized to GAPDH using the fold change (2^−ΔΔCT) method. […]

[4] = test system: EGF; experiment: EGF mRNA expression in epithelial cell line HT29; type: cell-based, human; conditions: about 24 hours
Protocol: as §2, §3, §1, §4, §5

[5] = test system: FGF1; experiment: FGF1 mRNA expression in epithelial cell T84 (Assay 5); type: cell-based, human; conditions: about 24 hours
Protocol: as §2, §3, §1, §4, §5

[6] = test system: EGF; experiment: EGF mRNA expression in epithelial cell line T84; type: cell-based, human; conditions: about 24 hours
Protocol: as §2, §3, §1, §4, §5

[7] = Experiment 1, 300 mg/kg PO, mean±SD

For `C=C1CC[C@@H]2[C@](C)(CO[C@@H]3O[C@H](CO)[C@@H](O)[C@H](O)[C@H]3O)CCC[C@@]2(C)[C@@H]1CCC1=CCOC1=O` [NAND, Neoandrographolide], the FGF1 up-regulation effect ([1]; T84, 10 μg/mL) was “did not show similar FGF1 up-regulation effect”.

In the case of `C=C1CC[C@@H]2[C@](C)(CO)[C@H](O)CC[C@@]2(C)[C@@H]1CCC1=CCOC1=O` [DAND, 14-deoxyandrographolide], the FGF1 up-regulation effect ([1]; T84, 10 μg/mL) is reported as “did not show similar FGF1 up-regulation effect”.

`O=C(O)c1cc(/N=N/c2ccc(S(=O)(=O)Nc3ccccn3)cc2)ccc1O` [SASP, Sulfasalazine] was tested, and the colon histopathology findings ([2]; 300 mg/kg/day, 8 samples) was “five samples showed severe mucosal erosion and inflammatory cell infiltration”, the “Colon ratio inhibition, %” value ([2]; Experiment 1, 300 mg/kg PO) was 44.5% and the “Colon ration CW/CL (%)” value [2, 7] was 0.0846 ± 0.0089 %. The “Crypt abscesses, histopathological score” value [2, 7] was 0.1 ± 0.4, the “Degree of cellular infiltrate, histopathological score” value [2, 7] was 2.1 ± 0.8 and the “Degree of erosion/ulcer, histopathological score” value [2, 7] was 1.6 ± 1.4. For the same compound, the “Degree of mucosa edema, histopathological score” value [2, 7] was 1.6 ± 0.9, the “Epithelium hyperplasia, histopathological score” value [2, 7] was 0.8 ± 0.5 and the “Goblet cell depletion, histopathological score” value [2, 7] was 0.9 ± 0.4. For the same compound, the “Muscle thickening, histopathological score” value [2, 7] was 1.4 ± 0.9, the “Severe destruction for erosion (%), histopathological score” value [2, 7] was 0.8 ± 0.7 and the “Severely affected in infiltration (%), histopathological score” value [2, 7] was 1.6 ± 0.7. The “The sum of score (colon histopathology)” value [2, 7] was 12.5 ± 6.3 and the “Total area affected (%), histopathological score” value [2, 7] was 1.6 ± 0.7.

In the case of `C=C1CCC2C(C)(CO)C(O)CCC2(C)C1/C=C/C1=CCOC1=O` (stereo not shown) [DDAND, 14-Deoxy-11,12-dehydroandrographolide], the FGF1 up-regulation effect ([1]; T84, 10 μg/mL) is reported as “did not show similar FGF1 up-regulation effect”.

In the case of `C=C1CC[C@@H]2[C@](C)(CO)[C@H](O)CC[C@@]2(C)[C@@H]1C/C=C1/C(=O)OC[C@H]1O` [AND, Andrographolide], the FGF1 up-regulation effect ([1]; T84, 40 μg/mL) is reported as “did not show similar FGF1 up-regulation effect”, the “mRNA expression of FGF2 in T84 cells” value [3] is reported as “had no similar effect” and the “mRNA expression of EGF in HT29 cells” value [4] is reported as “increased”. The “mRNA expression of FGF1 in T84 cells” value [5] was “had no similar effect” and the “mRNA expression of EGF in T84 cells” value [6] was “increased”.
